Assay results reported in patent publication US12390470B2, “1-methylxanthine-based bioactive composition and method of use thereof” (Ingenious Ingredients, LP, priority 2021, dated 2025).
Values joined by “and” are separate entries in the source; they are usually repeats but may differ in a detail not shown here. Equal entries are not always repeated.

Experiments:
[1] = Organ weight (liver, heart), Example 1; format: in vivo; settings: mice, 28 days
Protocol: (§1) Twenty-four 8-week-old male Swiss Albino mice were housed in an animal room at a constant temperature (22±3° C.) and humidity (30%-70%) under a 12:12 h light-dark cycle with standard laboratory diet (Purina 5L79, Rat and Mouse 18% protein; PMI Nutrition International, Brentwood, MO, USA). Distilled water was provided ad libitum. All animal experiments were reviewed and approved by the Institutional Animal Ethical Committee (IAEC) of Radiant Research Services Pvt. Ltd (Bangalore, India). All research was conducted in accordance with the guidelines of the committee for the purpose of control and supervision of experiments on animals.
After one week of acclimation, the animals were randomly divided by body weight into three groups (n=8 per group in each test) for oral treatment once a day, at approximately same time each day (±1 hour), for 28 consecutive days: (1) vehicle control or (2) 1-methylxanthine or (3) 1-methylxanthine plus paraxanthine. The dose administered to the mice was calculated using US Food and Drug Administration for human equivalence doses (HED), assuming a human weight of 60 kg. […] Food intake was monitored daily while water intake was ad libitum. BW was recorded weekly. […]

acetylcholine = experiment: Acetylcholine level in young and old rats; format: in vivo
Protocol: as §1, with “young (6-8 Week) and twenty-four old (14-16 Months)” for “8-week-old male”, “Wistar rats” for “mice”
After one week of acclimation, the animals were randomly divided by body weight and age into six groups (n=8 per group in each test) for oral treatment once a day, at approximately same time each day (±1 hour), for 10 consecutive days: (1) vehicle control or (2) 1-methylxanthine or (3) 1-methylxanthine plus paraxanthine. The dose administered to the rat was calculated using US Food and Drug Administration for human equivalence doses (HED), assuming a human weight of 60 kg. […] Food intake was monitored daily while water intake was ad libitum. […] Body weight was recorded weekly. […]

participants [2] = experiment: Respiratory quotient, placebo-controlled crossover; format: in vivo, human
Protocol: All supplements were orally ingested with 8 fluid ounces of cold tap water. The order of administration for all interventions was randomized using a random allocation software to ensure randomization and to avoid order effects. After ingestion, participants completed all assessments in an identical fashion 30, 60, 90, 120, and 180 minutes after ingestion of their assigned supplement. All study visits took place between 0600-1000 hours. At least 72 hours of rest will take place between each condition.
The lower the RQ, the more fat that is being oxidized for body energy needs. The closer to 1.0 the more carbohydrate is being burned for energy needs. If numbers are lower more fat is being oxidized.

participants [3] = experiment: Resting heart rate, crossover vs caffeine; format: in vivo, human
From the text: All supplements were orally ingested with 8 fluid ounces of cold tap water.

[4] = Person one, time 0, 200 mg oral
[5] = Person two, time 0, 200 mg oral

Structure (SMILES): Cn1c(=O)[nH]c2nc[nH]c2c1=O [1-methylxanthine, 1-Methyl-3H-purine-2,6-dione]
- Heart weight [1]: 189.13 ± 0.64 mg
- Liver weight [1]: 1847.25 ± 47.92 mg
- acetylcholine level (acetylcholine; old rats, listed as 1-MX): 56.33±3.42 U/ml and 56.33±3.58 U/ml
- acetylcholine level (acetylcholine; young rats): 63.35±4.12 U/ml
- respiratory quotient reduced compared to placebo (participants [2]; 200 mg oral): 15%
- greater fat loss than CA (participants [2]; 200 mg oral, from respiratory quotient): 2.3%
- Respiratory Quotient MEAN (30-180) (participants [2]; Average): 0.685
- Respiratory Quotient MEAN (30-180) (participants [2]; Person one): 0.676
- Respiratory Quotient (participants [2]; Person one, 30 min after ingestion): 0.69
- Respiratory Quotient (participants [2]; Person one, 60 min): 0.66
- Respiratory Quotient (participants [2]; Person one, 90 min): 0.67
- Respiratory Quotient (participants [2]; Person one, 120 min): 0.69
- Respiratory Quotient (participants [2]; Person one, 180 min): 0.67
- Respiratory Quotient (participants [2]; [4]): 0.67
- Respiratory Quotient MEAN (30-180) (participants [2]; Person two): 0.694
- Respiratory Quotient (participants [2]; Person two, 30 min): 0.72
- Respiratory Quotient (participants [2]; Person two, 60 min): 0.71
- Respiratory Quotient (participants [2]; Person two, 90 min): 0.66
- Respiratory Quotient (participants [2]; Person two, 120 min): 0.68
- Respiratory Quotient (participants [2]; Person two, 180 min): 0.70
- Respiratory Quotient (participants [2]; [5]): 0.70
- heart rate change from baseline (participants [3]; 200 mg oral): did not increase
- heart rate reduced in comparison to CA (participants [3]; 200 mg oral): 3%
- Resting Heart Rate MEAN (30-180) (participants [3]; Average): 57.9 bpm
- Resting Heart Rate Mean Δ from 0 (participants [3]; Average): −9.6 bpm
- Resting Heart Rate MEAN (30-180) (participants [3]; Person one): 53.2 bpm
- Resting Heart Rate Mean Δ from 0 (participants [3]; Person one): −11.8 bpm
- Resting Heart Rate Δ vs. CA (participants [3]; Person one): −2.0 bpm
- Resting Heart Rate (participants [3]; Person one, 30 min): 63 bpm
- Resting Heart Rate (participants [3]; Person one, 60 min): 54 bpm
- Resting Heart Rate (participants [3]; Person one, 90 min): 49 bpm
- Resting Heart Rate (participants [3]; Person one, 120 min): 45 bpm
- Resting Heart Rate (participants [3]; Person one, 180 min): 55 bpm
- Resting Heart Rate (participants [3]; [4]): 65 bpm
- Resting Heart Rate MEAN (30-180) (participants [3]; Person two): 62.6 bpm
- Resting Heart Rate Mean Δ from 0 (participants [3]; Person two): −2.4 bpm
- Resting Heart Rate Δ vs. CA (participants [3]; Person two): −1.0 bpm
- Resting Heart Rate (participants [3]; Person two, 30 min): 61 bpm
- Resting Heart Rate (participants [3]; Person two, 60 min): 60 bpm
- Resting Heart Rate (participants [3]; Person two, 90 min): 65 bpm
- Resting Heart Rate (participants [3]; Person two, 120 min): 60 bpm
- Resting Heart Rate (participants [3]; Person two, 180 min): 62 bpm
- Resting Heart Rate (participants [3]; [5]): 65 bpm
